Source: PMC11172257 (Emerging Microbes & Infections, 2024)
≈ marks a conversion by molar mass, not a printed value.

system: K. pneumonia HSD; test: microbe, parasite or virus in culture; design: species or system bacterial strains; details: not given

Row | Structure (SMILES) | MIC (μg/mL)^a / K. pneumonia HSD [µg/mL]
1 | CO/N=C(\C(=O)N[C@@H]1C(=O)N2C(C(=O)[O-])=C(C[N+]3(C)CCCC3)CS[C@H]12)c1csc(N)n1 [Cefepime] | 128 (≈ 266 µM)

same assay, conditions: Klebsiella pneumoniae, read-out: MIC (μg/mL)^a / K. pneumonia HSD

Row | Structure (SMILES) | MIC [µg/mL]
2 | C[C@@H](O)[C@H]1C(=O)N2C(C(=O)O)=C(S[C@@H]3CN[C@H](C(=O)N(C)C)C3)[C@H](C)[C@H]12 [Meropenem] | 4 (≈ 10.4 µM)
3 | CC1(C)S[C@@H]2[C@H](NC(=O)[C@H](N)c3ccc(O)cc3)C(=O)N2[C@H]1C(=O)O [Amoxicillin] | > 32
4 | C[C@@H](O)[C@H]1C(=O)N2C(C(=O)O)=C(S[C@@H]3CN[C@H](C(=O)Nc4cccc(C(=O)O)c4)C3)[C@H](C)[C@H]12 [Ertapenem] | 32 (≈ 67.3 µM)
5 | NCC[C@H](O)C(=O)N[C@@H]1C[C@H](N)[C@@H](O[C@H]2O[C@H](CN)[C@@H](O)[C@H](O)[C@H]2O)[C@H](O)[C@H]1O[C@H]1O[C@H](CO)[C@@H](O)[C@H](N)[C@H]1O [Amikacin] | > 128
6 | CC(C)(O/N=C(\C(=O)N[C@@H]1C(=O)N2C(C(=O)[O-])=C(C[n+]3ccccc3)CS[C@H]12)c1csc(N)n1)C(=O)O [ceftazidime] | > 128
